Assay results: ChEMBL document CHEMBL4321798, “Old but Gold: Tracking the New Guise of Histone Deacetylase 6 (HDAC6) Enzyme as a Biomarker and Therapeutic Target in Rare Diseases” (J Med Chem, 2020)

Assays:
[1] = biological target: T1, Protein deacetylase HDAC6 (Homo sapiens, UniProt Q9UBN7); experiment: Inhibition of HADC6 (unknown origin)
T1 sequence (Q9UBN7 whole entry): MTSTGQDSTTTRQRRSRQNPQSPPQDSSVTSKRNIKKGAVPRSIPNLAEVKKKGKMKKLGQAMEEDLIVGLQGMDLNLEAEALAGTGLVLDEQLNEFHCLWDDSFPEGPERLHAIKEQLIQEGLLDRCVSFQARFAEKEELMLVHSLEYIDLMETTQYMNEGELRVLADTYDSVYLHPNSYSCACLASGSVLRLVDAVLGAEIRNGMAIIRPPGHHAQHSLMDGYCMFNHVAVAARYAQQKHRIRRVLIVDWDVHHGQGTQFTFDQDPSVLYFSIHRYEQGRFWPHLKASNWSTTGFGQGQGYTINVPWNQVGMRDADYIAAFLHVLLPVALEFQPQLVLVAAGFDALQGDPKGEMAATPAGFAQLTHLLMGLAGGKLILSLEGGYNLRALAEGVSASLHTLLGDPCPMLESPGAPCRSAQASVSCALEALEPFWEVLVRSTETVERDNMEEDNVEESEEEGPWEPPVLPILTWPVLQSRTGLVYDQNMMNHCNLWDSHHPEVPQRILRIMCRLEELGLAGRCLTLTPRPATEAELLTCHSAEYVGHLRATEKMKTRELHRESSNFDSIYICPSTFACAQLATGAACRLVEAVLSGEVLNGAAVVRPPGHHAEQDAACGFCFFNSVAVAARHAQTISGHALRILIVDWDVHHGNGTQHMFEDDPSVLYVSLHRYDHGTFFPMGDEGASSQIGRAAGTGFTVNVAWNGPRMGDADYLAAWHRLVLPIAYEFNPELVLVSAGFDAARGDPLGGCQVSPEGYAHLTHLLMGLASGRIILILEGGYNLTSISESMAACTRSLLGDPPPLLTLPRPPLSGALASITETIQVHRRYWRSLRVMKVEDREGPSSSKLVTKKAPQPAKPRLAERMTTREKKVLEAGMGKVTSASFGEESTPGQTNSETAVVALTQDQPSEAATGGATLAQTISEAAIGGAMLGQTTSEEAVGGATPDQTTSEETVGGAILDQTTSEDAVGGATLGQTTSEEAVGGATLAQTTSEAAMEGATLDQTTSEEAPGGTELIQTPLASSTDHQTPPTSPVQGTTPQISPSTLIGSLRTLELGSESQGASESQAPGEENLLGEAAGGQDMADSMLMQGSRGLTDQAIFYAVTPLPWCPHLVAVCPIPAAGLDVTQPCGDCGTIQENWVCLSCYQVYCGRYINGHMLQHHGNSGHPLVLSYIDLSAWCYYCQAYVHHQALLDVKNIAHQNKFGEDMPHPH

Histone deacetylase 1 = Histone deacetylase 1 (Homo sapiens, UniProt Q13547); experiment: Inhibition of HADC1 (unknown origin)
Histone deacetylase 1, sequence (Q13547 whole entry): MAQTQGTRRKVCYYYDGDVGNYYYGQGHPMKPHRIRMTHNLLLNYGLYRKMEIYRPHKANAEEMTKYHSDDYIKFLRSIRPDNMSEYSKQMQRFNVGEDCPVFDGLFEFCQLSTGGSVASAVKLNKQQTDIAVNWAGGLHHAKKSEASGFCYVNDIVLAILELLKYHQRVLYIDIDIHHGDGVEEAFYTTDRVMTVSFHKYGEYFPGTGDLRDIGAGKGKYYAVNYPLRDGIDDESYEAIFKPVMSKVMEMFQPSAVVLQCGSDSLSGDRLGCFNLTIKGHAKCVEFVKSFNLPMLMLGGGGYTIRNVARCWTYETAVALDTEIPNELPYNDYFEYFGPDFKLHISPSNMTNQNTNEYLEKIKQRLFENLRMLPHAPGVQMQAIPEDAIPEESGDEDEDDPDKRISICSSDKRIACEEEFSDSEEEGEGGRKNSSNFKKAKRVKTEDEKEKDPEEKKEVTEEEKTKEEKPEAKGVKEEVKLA

[2] = Inhibition of maize HD2; set-up: species or system Zea mays
[3] = Inhibition of maize HD1-A; set-up: species or system Zea mays

| SMILES | IC50 [1] [nM] | IC50 (Histone deacetylase 1) [nM] | IC50 [3] [nM] | IC50 [2] [nM] |
| --- | --- | --- | --- | --- |
| CN(C)c1ccc(C(=O)NCCCCCCC(=O)NO)cc1 |  |  |  | 100 |
| CCCC(CCC)C(=O)O [VALPROIC ACID] |  | 40000 |  |  |
| Cc1nc2ccccc2n1Cc1ccc(C(=O)NO)cc1F | 3 | 4320 |  |  |

Further lines, with some results ahead:

| IC50 [1] [nM] | IC50 (Histone deacetylase 1) [nM] | IC50 [3] [nM] | SMILES | IC50 [2] [nM] |
| --- | --- | --- | --- | --- |
| 1600 | 3.3 |  | CC(C)[C@H]1NC(=O)[C@H]2CSSCC/C=C/[C@H](CC(=O)N[C@H](C)C(=O)N2)OC(=O)C[C@@H]1O [OBP-801] |  |
|  |  | 100 | Cn1cc(/C=C/C(=O)c2cccc(F)c2)cc1/C=C/C(=O)NO |  |
